SMILES strings stand for the structures.

Mitogen-activated protein kinase 3, sequence (P27361 whole entry): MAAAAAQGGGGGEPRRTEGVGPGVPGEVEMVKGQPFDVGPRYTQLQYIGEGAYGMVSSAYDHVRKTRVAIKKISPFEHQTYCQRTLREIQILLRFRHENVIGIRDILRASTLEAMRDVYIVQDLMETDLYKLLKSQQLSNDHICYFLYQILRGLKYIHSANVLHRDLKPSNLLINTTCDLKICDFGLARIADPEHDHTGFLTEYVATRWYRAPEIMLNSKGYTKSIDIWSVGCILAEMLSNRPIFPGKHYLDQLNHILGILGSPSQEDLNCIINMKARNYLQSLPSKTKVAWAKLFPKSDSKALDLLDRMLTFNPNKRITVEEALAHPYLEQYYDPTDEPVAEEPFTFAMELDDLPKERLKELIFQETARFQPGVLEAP

The target in one assay is Substance-P receptor (Homo sapiens, UniProt P25103). Also: in other assays of this panel Not Active means under 50% inhibition at 10 µM.
Substance-P receptor, sequence (P25103 whole entry): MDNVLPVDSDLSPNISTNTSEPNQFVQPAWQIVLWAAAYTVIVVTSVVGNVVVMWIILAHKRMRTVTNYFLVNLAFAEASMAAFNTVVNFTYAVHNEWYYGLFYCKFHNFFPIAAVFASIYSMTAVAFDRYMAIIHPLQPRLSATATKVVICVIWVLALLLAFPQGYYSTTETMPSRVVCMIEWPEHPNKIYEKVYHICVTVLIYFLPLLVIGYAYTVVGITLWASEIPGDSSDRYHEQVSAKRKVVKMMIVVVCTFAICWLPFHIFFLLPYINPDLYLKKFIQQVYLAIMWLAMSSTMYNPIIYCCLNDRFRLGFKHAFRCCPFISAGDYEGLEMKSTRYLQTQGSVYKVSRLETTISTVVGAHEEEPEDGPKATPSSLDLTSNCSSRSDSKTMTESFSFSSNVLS
Experiment: not given
Particulars: cho. Type of assay: cell membranes, CHO, Membrane.
With `CCCCOC(=O)c1ccc(N)cc1` [BUTAMBEN], the IC50 entry was “Not Active”.

As for `Cc1ccccc1N1CCN(CCc2nnc3n2CCCC3)CC1` [DAPIPRAZOLE], the IC50 result was “Not Active”.

Consider `COCc1c(C(C)C)nc(C(C)C)c(/C=C/[C@@H](O)C[C@@H](O)CC(=O)O)c1-c1ccc(F)cc1` [CERIVASTATIN], for which the IC50 entry is on record as “Not Active”.

In another assay the target is T1, Substance-K receptor (Homo sapiens, UniProt P21452). Also: in other assays of this panel Not Active means under 50% inhibition at 10 µM.
T1 sequence (P21452 whole entry): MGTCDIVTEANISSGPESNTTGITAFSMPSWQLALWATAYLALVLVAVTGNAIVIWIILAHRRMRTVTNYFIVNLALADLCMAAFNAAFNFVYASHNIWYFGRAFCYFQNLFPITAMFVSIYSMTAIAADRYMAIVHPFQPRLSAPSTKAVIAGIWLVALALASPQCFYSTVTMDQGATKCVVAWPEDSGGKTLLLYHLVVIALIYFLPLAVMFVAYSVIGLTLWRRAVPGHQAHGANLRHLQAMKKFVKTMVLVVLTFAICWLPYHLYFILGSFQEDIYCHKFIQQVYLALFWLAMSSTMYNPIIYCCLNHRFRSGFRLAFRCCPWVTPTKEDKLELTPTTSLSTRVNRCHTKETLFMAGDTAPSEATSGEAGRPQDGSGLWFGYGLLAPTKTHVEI
Experiment: not given
Type of assay: cell membranes, CHO, Membrane. Conditions: cho.
Turning to `CCCCOC(=O)c1ccc(N)cc1` [BUTAMBEN], the IC50 entry is recorded as “Not Active”.

Turning to `Cc1ccccc1N1CCN(CCc2nnc3n2CCCC3)CC1` [DAPIPRAZOLE], the IC50 entry is “Not Active”.

As for `COCc1c(C(C)C)nc(C(C)C)c(/C=C/[C@@H](O)C[C@@H](O)CC(=O)O)c1-c1ccc(F)cc1` [CERIVASTATIN], the IC50 entry is “Not Active”.

Another assay addresses Mitogen-activated protein kinase 3 (Homo sapiens, UniProt P27361). The assay can be described thus: DRUGMATRIX: Protein Serine/Threonine Kinase, ERK1 enzyme inhibition (substrate: Myelin Basic Protein). Details: species or system Escherichia coli. Conditions: Not Active = under 50% inhibition at 10 µM.
For `CCCCOC(=O)c1ccc(N)cc1` [BUTAMBEN], the IC50 result is on record as “Not Active”.

With `Cc1ccccc1N1CCN(CCc2nnc3n2CCCC3)CC1` [DAPIPRAZOLE], the IC50 result is listed as “Not Active”.

In the case of `COCc1c(C(C)C)nc(C(C)C)c(/C=C/[C@@H](O)C[C@@H](O)CC(=O)O)c1-c1ccc(F)cc1` [CERIVASTATIN], the IC50 result is recorded as “Not Active”.

Test system in another assay: not listed separately
In words: DRUGMATRIX: Potassium Channel [KATP] radioligand binding (ligand: [3H] Glyburide). Format: cell membranes, Membrane. Particulars: hit-t15; Not Active = under 50% inhibition at 10 µM.
For `CCCCOC(=O)c1ccc(N)cc1` [BUTAMBEN], the IC50 entry is “Not Active” and the Ki entry is “Not Active”.

For the molecule `Cc1ccccc1N1CCN(CCc2nnc3n2CCCC3)CC1` [DAPIPRAZOLE], the IC50 result was “Not Active” and the Ki entry was “Not Active”.

Consider `COCc1c(C(C)C)nc(C(C)C)c(/C=C/[C@@H](O)C[C@@H](O)CC(=O)O)c1-c1ccc(F)cc1` [CERIVASTATIN], for which the IC50 result was “Not Active” and the Ki result is recorded as “Not Active”.

Another assay addresses T2, Calcitonin receptor (Homo sapiens, UniProt P30988).
T2 sequence (P30988 whole entry): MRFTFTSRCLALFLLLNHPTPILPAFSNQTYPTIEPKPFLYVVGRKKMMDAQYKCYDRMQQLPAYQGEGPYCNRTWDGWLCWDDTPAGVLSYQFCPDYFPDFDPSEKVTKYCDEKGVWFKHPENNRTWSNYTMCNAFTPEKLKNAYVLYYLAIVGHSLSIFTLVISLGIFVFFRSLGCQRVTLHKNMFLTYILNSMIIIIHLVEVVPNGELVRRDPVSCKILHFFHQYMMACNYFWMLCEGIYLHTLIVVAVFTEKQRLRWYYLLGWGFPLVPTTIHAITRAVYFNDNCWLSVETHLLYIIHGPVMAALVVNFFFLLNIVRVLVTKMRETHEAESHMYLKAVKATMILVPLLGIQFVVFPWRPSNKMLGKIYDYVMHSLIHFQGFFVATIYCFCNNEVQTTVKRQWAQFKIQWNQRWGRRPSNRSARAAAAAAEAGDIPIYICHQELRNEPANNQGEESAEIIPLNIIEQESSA
Experiment: not given
Type of assay: cell membranes, Membrane. Particulars: t47d.
Turning to `CCCCOC(=O)c1ccc(N)cc1` [BUTAMBEN], the IC50 result is given as “Not Active”.

For `Cc1ccccc1N1CCN(CCc2nnc3n2CCCC3)CC1` [DAPIPRAZOLE], the IC50 entry is given as “Not Active”.

With `COCc1c(C(C)C)nc(C(C)C)c(/C=C/[C@@H](O)C[C@@H](O)CC(=O)O)c1-c1ccc(F)cc1` [CERIVASTATIN], the IC50 result was “Not Active”.

Test system in another assay: not listed separately
In words: DRUGMATRIX: Nicotinic Acetylcholine radioligand binding (ligand: [125I] Epibatidine). Type of assay: cell membranes, Membrane. Conditions: imr-32; Not Active = under 50% inhibition at 10 µM.
Take `CCCCOC(=O)c1ccc(N)cc1` [BUTAMBEN]: the IC50 result is “Not Active” and the Ki entry is “Not Active”.

In the case of `Cc1ccccc1N1CCN(CCc2nnc3n2CCCC3)CC1` [DAPIPRAZOLE], the IC50 result is “Not Active” and the Ki result is listed as “Not Active”.

For the molecule `COCc1c(C(C)C)nc(C(C)C)c(/C=C/[C@@H](O)C[C@@H](O)CC(=O)O)c1-c1ccc(F)cc1` [CERIVASTATIN], the IC50 result is reported as “Not Active” and the Ki result is listed as “Not Active”.

The target of another assay is C-C chemokine receptor type 5 (Homo sapiens, UniProt P51681). Also: in other assays of this panel Not Active means under 50% inhibition at 10 µM.
C-C chemokine receptor type 5, sequence (P51681 whole entry): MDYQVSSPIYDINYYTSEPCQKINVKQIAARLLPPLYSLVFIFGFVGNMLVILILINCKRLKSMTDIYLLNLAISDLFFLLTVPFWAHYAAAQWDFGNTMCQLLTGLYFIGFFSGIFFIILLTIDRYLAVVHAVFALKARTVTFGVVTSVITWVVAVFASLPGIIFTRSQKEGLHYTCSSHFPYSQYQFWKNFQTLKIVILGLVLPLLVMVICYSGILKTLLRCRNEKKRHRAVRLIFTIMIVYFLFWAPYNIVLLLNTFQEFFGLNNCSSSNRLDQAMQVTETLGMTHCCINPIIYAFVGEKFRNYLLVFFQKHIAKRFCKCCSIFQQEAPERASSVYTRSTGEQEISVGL
Experiment: not given
Format: cell membranes, Membrane. Particulars: hek293.
Take `CCCCOC(=O)c1ccc(N)cc1` [BUTAMBEN]: the IC50 entry is listed as “Not Active”.

As to `Cc1ccccc1N1CCN(CCc2nnc3n2CCCC3)CC1` [DAPIPRAZOLE], the IC50 result was “Not Active”.

For `COCc1c(C(C)C)nc(C(C)C)c(/C=C/[C@@H](O)C[C@@H](O)CC(=O)O)c1-c1ccc(F)cc1` [CERIVASTATIN], the IC50 entry was “Not Active”.

Test system in a further assay: not listed separately
In words: DRUGMATRIX: GABAA, Muscimol, Central radioligand binding (ligand: [3H] Muscimol). Format: cell membranes, Rattus norvegicus, Wistar, Brain, Membrane. Particulars: Not Active = under 50% inhibition at 10 µM.
With `CCCCOC(=O)c1ccc(N)cc1` [BUTAMBEN], the IC50 entry is reported as “Not Active” and the Ki result was “Not Active”.

As to `Cc1ccccc1N1CCN(CCc2nnc3n2CCCC3)CC1` [DAPIPRAZOLE], the IC50 result was “Not Active” and the Ki entry was “Not Active”.

Turning to `COCc1c(C(C)C)nc(C(C)C)c(/C=C/[C@@H](O)C[C@@H](O)CC(=O)O)c1-c1ccc(F)cc1` [CERIVASTATIN], the IC50 result is “Not Active” and the Ki result is recorded as “Not Active”.

A further assay has as its target Glycine receptor (Rattus norvegicus, UniProt P22771+P24524+P07727+P20781). Also: in other assays of this panel Not Active means under 50% inhibition at 10 µM.
Experiment: not given
Details: not given
Format: cell membranes, Wistar, Spinal cord, Membrane.
`CCCCOC(=O)c1ccc(N)cc1` [BUTAMBEN]: the IC50 entry was “Not Active”.

On to `Cc1ccccc1N1CCN(CCc2nnc3n2CCCC3)CC1` [DAPIPRAZOLE], for which the IC50 result was “Not Active”.

Take `COCc1c(C(C)C)nc(C(C)C)c(/C=C/[C@@H](O)C[C@@H](O)CC(=O)O)c1-c1ccc(F)cc1` [CERIVASTATIN]: the IC50 result is “Not Active”.

A further assay deals with Adenosine receptor A2a (Homo sapiens, UniProt P29274). In words: DRUGMATRIX: Adenosine A2A radioligand binding (ligand: […]). Type of assay: cell membranes, HEK293, Membrane. Conditions: hek293; Not Active = under 50% inhibition at 10 µM.
Adenosine receptor A2a, sequence (P29274 whole entry): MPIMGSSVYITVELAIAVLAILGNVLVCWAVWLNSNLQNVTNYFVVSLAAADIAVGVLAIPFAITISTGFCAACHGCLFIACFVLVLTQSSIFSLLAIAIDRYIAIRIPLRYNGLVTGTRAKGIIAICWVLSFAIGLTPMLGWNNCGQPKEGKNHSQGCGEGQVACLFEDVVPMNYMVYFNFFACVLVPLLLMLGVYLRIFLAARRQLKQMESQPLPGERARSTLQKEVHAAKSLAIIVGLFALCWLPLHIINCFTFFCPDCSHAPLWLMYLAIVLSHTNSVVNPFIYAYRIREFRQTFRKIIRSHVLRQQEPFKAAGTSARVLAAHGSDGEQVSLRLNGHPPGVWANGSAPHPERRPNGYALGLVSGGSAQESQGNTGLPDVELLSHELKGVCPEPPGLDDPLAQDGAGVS
Turning to `CCCCOC(=O)c1ccc(N)cc1` [BUTAMBEN], the IC50 result is reported as “Not Active”.

Take `Cc1ccccc1N1CCN(CCc2nnc3n2CCCC3)CC1` [DAPIPRAZOLE]: the IC50 result is “Not Active”.

Turning to `COCc1c(C(C)C)nc(C(C)C)c(/C=C/[C@@H](O)C[C@@H](O)CC(=O)O)c1-c1ccc(F)cc1` [CERIVASTATIN], the IC50 result is listed as “Not Active”.

The target of the next assay is T3, Angiotensin-converting enzyme (Oryctolagus cuniculus, UniProt P12822).
T3 sequence (P12822 whole entry): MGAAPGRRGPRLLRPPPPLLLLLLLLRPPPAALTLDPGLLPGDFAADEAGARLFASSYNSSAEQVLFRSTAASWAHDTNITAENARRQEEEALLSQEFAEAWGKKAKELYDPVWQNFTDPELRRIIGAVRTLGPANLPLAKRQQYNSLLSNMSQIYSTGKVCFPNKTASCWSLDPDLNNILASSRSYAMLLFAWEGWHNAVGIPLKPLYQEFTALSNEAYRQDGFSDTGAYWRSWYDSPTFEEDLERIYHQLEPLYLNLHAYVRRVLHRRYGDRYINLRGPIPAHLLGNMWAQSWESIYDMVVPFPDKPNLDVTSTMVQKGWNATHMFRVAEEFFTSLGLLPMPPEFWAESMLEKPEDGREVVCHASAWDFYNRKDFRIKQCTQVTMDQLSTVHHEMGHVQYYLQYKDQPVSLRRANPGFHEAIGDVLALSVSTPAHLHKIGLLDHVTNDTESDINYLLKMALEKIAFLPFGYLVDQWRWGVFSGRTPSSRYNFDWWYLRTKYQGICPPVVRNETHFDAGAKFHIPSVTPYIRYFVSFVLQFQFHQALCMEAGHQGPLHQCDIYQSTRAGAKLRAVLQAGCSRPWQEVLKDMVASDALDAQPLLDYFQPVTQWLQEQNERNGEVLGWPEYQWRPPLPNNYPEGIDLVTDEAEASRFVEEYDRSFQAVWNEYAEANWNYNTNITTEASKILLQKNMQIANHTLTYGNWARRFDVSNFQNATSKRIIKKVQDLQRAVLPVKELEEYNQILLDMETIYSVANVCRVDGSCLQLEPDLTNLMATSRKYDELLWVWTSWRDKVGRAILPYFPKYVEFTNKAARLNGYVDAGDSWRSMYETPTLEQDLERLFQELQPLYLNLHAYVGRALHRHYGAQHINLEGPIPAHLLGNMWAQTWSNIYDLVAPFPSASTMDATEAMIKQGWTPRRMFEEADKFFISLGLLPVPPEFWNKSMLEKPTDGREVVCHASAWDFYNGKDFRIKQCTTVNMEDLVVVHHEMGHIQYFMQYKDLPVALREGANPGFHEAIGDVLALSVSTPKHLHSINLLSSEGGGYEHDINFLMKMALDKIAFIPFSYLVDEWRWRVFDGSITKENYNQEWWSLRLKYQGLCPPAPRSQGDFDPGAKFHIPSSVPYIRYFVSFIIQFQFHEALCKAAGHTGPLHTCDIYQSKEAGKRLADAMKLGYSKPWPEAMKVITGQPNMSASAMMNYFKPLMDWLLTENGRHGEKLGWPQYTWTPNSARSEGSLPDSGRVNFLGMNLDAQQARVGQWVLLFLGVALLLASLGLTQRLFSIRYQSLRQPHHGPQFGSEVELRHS
The assay can be described thus: biochemical. Format: tissue-based, Lung.
Details: not given
In the case of `CCCCOC(=O)c1ccc(N)cc1` [BUTAMBEN], the IC50 result was “Not Active”.

Consider `Cc1ccccc1N1CCN(CCc2nnc3n2CCCC3)CC1` [DAPIPRAZOLE], for which the IC50 result is reported as “Not Active”.

As to `COCc1c(C(C)C)nc(C(C)C)c(/C=C/[C@@H](O)C[C@@H](O)CC(=O)O)c1-c1ccc(F)cc1` [CERIVASTATIN], the IC50 result is “Not Active”.

Test system in another assay: not listed separately
In words: DRUGMATRIX: Interleukin IL-1 radioligand binding (ligand: [125I] interleukin 1beta). Type of assay: cell membranes, Membrane. Particulars: nih3t3; Not Active = under 50% inhibition at 10 µM.
Regarding `CCCCOC(=O)c1ccc(N)cc1` [BUTAMBEN], the IC50 result was “Not Active” and the Ki result is “Not Active”.

Regarding `Cc1ccccc1N1CCN(CCc2nnc3n2CCCC3)CC1` [DAPIPRAZOLE], the IC50 result is listed as “Not Active” and the Ki entry is given as “Not Active”.

Turning to `COCc1c(C(C)C)nc(C(C)C)c(/C=C/[C@@H](O)C[C@@H](O)CC(=O)O)c1-c1ccc(F)cc1` [CERIVASTATIN], the IC50 entry was “Not Active” and the Ki result is “Not Active”.
